Laboratory results from US20090131500A1, “PORPHYRIN DERIVATES AND THEIR USE AS PHOTOSENSITIZERS IN PHOTODYNAMIC THERAPY” (priority 2006, published 2009).

Tests used:
Format in all cases: physicochemical
[1] = Ground state absorption spectrum
Method: (§1) The ground state absorption spectra were recorded at room temperature using a commercial spectrophotometer Shimadzu UV-2501PC. Steady-state fluorescence spectra were measured in 1 cm×1 cm quartz optical cells using a combination of a cw-Xenon lamp (XBO 150) and a monochromator (Lot-Oriel, bandwidth 10 nm) for excitation and a polychromator with a cooled CCD matrix as a detector system (Lot-Oriel, Instaspec IV).

[2] = Steady-state fluorescence spectrum (fluorescence quantum yield)
Method: as §1

[3] = Time-resolved singlet oxygen luminescence at 1270 nm (singlet oxygen quantum yield); conditions: excitation at 510 nm, Pheo as reference
Method: Photosensitizer-generated time-resolved singlet oxygen luminescence was measured at 1270 nm. A nanosecond Nd-YAG laser (BMI) equipped with an OPO (BMI) was used to excite the samples at 510 nm and the luminescence signal was recorded by a germanium pin diode (Northcoast). To calculate the singlet oxygen quantum yield, (DA, the solution of Pheo in DMF as well as in ethanol were used as reference (ΦΔ^Pheo=0.52).

[4] = Transient absorption spectra (ISC / triplet quantum yield)
Method: To measure transient absorption spectra (TAS), a white light continuum was generated as a test beam in a cell with D2O/H2O mixture using intense 25 ps single pulses from a Nd:YAG laser (Ekspla) at 1064 nm. Before passing through the sample, the continuum radiation was split to get a reference spectrum. The transmitted as well as the reference beam were focused into two optical fibers and were recorded simultaneously at different traces on a CCD-matrix (Lot-Oriel, Instaspec IV). The tunable radiation of a OPO/OPG (Ekspla, tuning range 210-2300 nm) pumped by the third harmonic of the same laser was used for excitation of the samples. The mechanical delay line allowed measuring the light-induced changes in the absorption spectrum at different time delays up to 15 ns after excitation.

absorption band of the first excited singlet state ([1]; in ethanol (FIG. 1)): 690 nm | Qy-absorption at λ ([1]; room temperature): 690 nm | fluorescence quantum yield ΦFl [2]: 0.02 | singlet oxygen quantum yield ΦΔ [3]: 0.9 | ISC quantum yield ΦISC [4]: 0.95±0.05
Substance: 5^4, 10^4, 15^4, 20^4-tetra-t-butyl[3,5^2]-ethano-5^6-methyl-3^1-oxo-5,10,15,20-tetraphenylporphyrin [FB-1-CO]
